# Test results taken from patent US20230190657A1, “METHODS AND COMPOSITIONS FOR TREATING A FIBROTIC DISEASE” (TRUSTEES OF BOSTON UNIVERSITY, priority 2020, published 2023).
# Entries after “also recorded” stand apart in the source; their conditions may differ.
# Key:
# [1] = test system: collagen I expression in human fibroblast-like synoviocytes (HFLS); assay: Collagen I expression in HFLS treated with relaxin-2 microparticles in transwells; format: cell-based
# From the text: Human fibroblast-like synoviocytes (HFLS) treated with relaxin-2 microparticles in transwells allow for evaluation of the release and efficacy of released relaxin-2 at various time points. […] In the presence of relaxin-2, collagen I is expressed at 20 to 30 % of the basal level at weeks 1, 3, and 4.
# human fibroblasts = details: cited from earlier work
# heart failure = details: 30 micrograms/kg/day for 2 days, intravenous infusion; cited from earlier work
# [2] = Circular dichroism spectroscopy of relaxin-2 fold and stability; format: physicochemical
# Protocol: Relaxin-2 loaded PLGA microparticles (RMPs) were prepared based on the water/oil/water (w/o/w) method as described by Igartua, M., et. al., International Journal of Pharmaceutics, 1998, 169(1): 45-54 at 1.27 x 10-3 wt % loaded relaxin as determined by ELISA analysis. Significant optimization and tailoring of the method was required to obtain the particle. Amounts, time, temperature, mixing speed, polymer LA:GA content were all varied to identify a unique non-obvious set of conditions to prepare the polymer. […] Relaxin-2 in the relaxin-2 microparticles maintained its native secondary and tertiary structure through the w/o/w double-emulsion process. […] Additionally, relaxin-2 was stable at 37° C. over 2 months (FIG. 2, right). The relaxin-2 PLGA microparticles were prepared with batch-to-batch consistency and were resuspended in PEG-600 to reduce aggregation and flocculation, as well as to ease administration through a 23G needle.
# Two amphiphilic hydrogels were synthesized for the physical entrapment of relaxin-2 in order to control its sustained release (FIG. 6). These amphiphilic molecules melted at 95 °C and congealed when slowly cooled back to room temperature strictly from non-covalent interactions. The alkyl chain of 1 and alkyl fluoride chain of 2 allow for hydrophobic interactions between each molecule, while the […] and thymidine moieties allow for pi-pi stacking. Lastly, the deoxyribose and glucose groups facilitate hydrogen bonding (Godeau, G., et al., Tetrahedron Letters 2010, 51: 1012-1015; Ramen, F.A. et al., Biomaterials. 2017, 145: 72-80). Together, these amphiphilic molecules create unique and stable supramolecular assemblies that are stable at 37 °C for at least two weeks. This stability feature is another novel finding and benefit to the use of the hydrogels. Three gels of each 1 and 2 were created with bovine serum albumin and relaxin-2 at different densities by dissolving each molecule in a solution of phosphate buffered saline with protein and heating to 95 °C for 30 minutes. […] After cooling down to room temperature, relaxin-2-loaded gels were fully congealed (FIG. 7, right).
# [3] = test system: shoulder joint (arthrofibrosis); assay: Histological analysis of the shoulder joint in rat shoulder contracture model; format: in vivo; details: immobilized shoulders of rats; mIA of relaxin-2 or relaxin loaded microparticles
# [4] = in vivo; cited from earlier work
# [5] = test system: collagen build-up in the lung induced by bleomycin; details: cited from earlier work
# [6] = test system: stiff shoulder (shoulder contracture), glenohumeral joint; assay: Range of motion in rat shoulder contracture model; format: in vivo, rats
# Protocol: The study was approved by the Institutional Animal Care and Use Committee, and 10 Sprague-Dawley rats (250-300 g, Charles River Laboratories, Wilmington, MA, USA) were used in the study. For each animal, torque was measured per degree, on the intact left shoulder as a function of rotation angle between 80° of internal rotation (negative values by convention) and 60° of external rotation (positive values by convention) prior to any surgical intervention (baseline). […] Therefore, torque values at 60° external rotation (rOUT) and 80° of internal rotation (τINT) were recorded for each animal.
# The left forelimb of each animal was immobilized using extraarticular internal fixation. Under isoflurane anesthesia, a longitudinal skin incision was made perpendicular to the scapular spine. Two No. 2-0 braided polyester sutures (Ethibond Excel, Ethicon - San Lorenzo, PR, USA) were passed between the medial border of the scapula and the humeral shaft and tightened to immobilize the shoulder joint (FIG. 1, panel A). Muscular structures were not manipulated during surgery, and the animals were allowed normal activity in their cages immediately after the procedure.
# After 8 weeks of immobilization, the restraining sutures were removed, and the 10 animals were divided into two groups to evaluate changes in ROM (ROM group, n = 5) and joint stiffness (stiffness group, n = 5). In the ROM group, changes in kinematics were longitudinally quantified in the follow-up period by measuring the ROM achieved with the τOUT and τINT measured at baseline. This was conducted to evaluate whether immobilization mediated a significant reduction in ROM. In the stiffness group, joint kinetics were examined by measuring the differences in τOUT and τINT needed to achieve the original 80° of internal rotation and 60° of external rotation, respectively. […]
# To reproducibly capture ROM and torque, passive limb rotation was performed by a stepper motor controlled with a microcontroller (UNO R3, Arduino - Torino, Italy). […] In the ROM group, pre-set programmable torque values, specific for each animal and measured at baseline (τOUT and τINT), were used as input variables in order to detect changes in rotation ROM with 0.2° resolution. […]
# This study investigated the effects of recombinant human relaxin-2 on the kinetics and kinematics of the glenohumeral joint in an animal model of shoulder contracture, as described in Villa-Camacho et al., Journal of Shoulder and Elbow Surgery, 2015, 24(11): 1809-16. […] For each animal, torque was measured per degree, on the intact left shoulder as a function of rotation angle between […] and 60° of external rotation prior to any surgical intervention. […]
# [7] = test system: cultured renal fibroblasts, epithelial cells and mesangial cells; details: cited from earlier work
# [8] = test system: scleroderma (systemic sclerosis); details: cited from earlier work
substance,measurement,setting,value
Relaxin-2,antifibrotic efficacy (downregulation of collagen I expression) of released relaxin-2,"[1]; HFLS / synoviocytes, over four weeks, versus untreated control",significant downregulation in collagen I expression
same,collagen I level by densitometry (reduced to),"[1]; synoviocytes, legend of FIG. 4 breaks off",approximately 50%
same,collagen and fibronectin levels,human fibroblasts,reduction in levels of collagen types I and III and fibronectin
same,primary endpoint of effectiveness,heart failure,did not meet the trial’s primary endpoint of effectiveness
same,time stable at 37° C. without loss of alpha helical structure,[2],up to 2 months
same,time stable at 37° C. without loss of alpha helical structure,[2]; listed as relaxin-2,2 months
same,conformation after incubation at 95° C.,"[2]; 95° C., at least one hour",maintains its folded 3D structure; also recorded: tolerant to incubation for at least one hour
same,secondary (alpha helical) structure after the double emulsion process,[2]; w/o/w double emulsion of PLGA microparticle synthesis,no change; also recorded: unaffected by the double emulsion process
same,histology: adhesions / hallmarks of arthrofibrosis,[3],lacked any apparent adhesions
same,pharmacokinetic profile,[4],rapid pharmacokinetic profile
same,lung collagen build-up,[5],decreased collagen build-up in the lung induced by bleomycin
same,internal ROM,[6]; intravenous injection at a much greater dose,similarly constricted internal ROM compared with the untreated control group
same,internal ROM,"[6]; relaxin-2 as mIA (5 intraarticular injections of 2 ug/kg every other day), RMP as single injection of approximately 10 ug/kg",significant increase back to healthy baseline by week 2
same,internal ROM,"[6]; relaxin-2 as mIA (5 intraarticular injections of 2 ug/kg every other day), RMP as single injection of approximately 10 ug/kg, listed as relaxin-2",restoration of internal ROM to baseline measurements
same,internal ROM,[6]; singular articular injection,similarly constricted internal ROM compared with the untreated control group
same,TGF-β-induced fibronectin levels,[7],decreased TGF-β-induced fibronectin levels
same,primary endpoint of effectiveness,"[8]; 25 micrograms/kg/day for 24 weeks, subcutaneous delivery",did not meet the trial’s primary endpoint of effectiveness
same,renal adverse events,"[8]; human, in vivo, sc",declines in creatine clearance and renal adverse events
